Structures can show the parent of a compound that is named as a salt.
Tests used:
[1] = target: JAK2 kinase activity on STAT5 in TF1 cells (Homo sapiens, UniProt O60674); experiment: pSTAT5 cell assay (MSD; TF1 cells, 30 ng/mL IL-3 stimulation); assay type: cell-based; conditions: 30 ng/mL IL-3, 15 minutes
Outline: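 IC50 from a 4-parameter logistic fit of normalized pSTAT5 signal, measured by MSD in lysates of TF1 cells. Cells were serum-starved, exposed to compound for 1 h (top concentration 10 μM, four-fold, 10 points), then given IL-3 at 30 ng/mL for 15 min.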

[2] = target: Tyk2 kinase activity on STAT4 in NK92 cells (Homo sapiens, UniProt P29597); experiment: pSTAT4 cell assay (MSD; NK92 cells, 30 ng/mL IL2 stimulation); assay type: cell-based; conditions: 30 ng/mL IL2, 15 minutes
Tyk2 kinase activity on STAT4 in NK92 cells, sequence (P29597 whole entry): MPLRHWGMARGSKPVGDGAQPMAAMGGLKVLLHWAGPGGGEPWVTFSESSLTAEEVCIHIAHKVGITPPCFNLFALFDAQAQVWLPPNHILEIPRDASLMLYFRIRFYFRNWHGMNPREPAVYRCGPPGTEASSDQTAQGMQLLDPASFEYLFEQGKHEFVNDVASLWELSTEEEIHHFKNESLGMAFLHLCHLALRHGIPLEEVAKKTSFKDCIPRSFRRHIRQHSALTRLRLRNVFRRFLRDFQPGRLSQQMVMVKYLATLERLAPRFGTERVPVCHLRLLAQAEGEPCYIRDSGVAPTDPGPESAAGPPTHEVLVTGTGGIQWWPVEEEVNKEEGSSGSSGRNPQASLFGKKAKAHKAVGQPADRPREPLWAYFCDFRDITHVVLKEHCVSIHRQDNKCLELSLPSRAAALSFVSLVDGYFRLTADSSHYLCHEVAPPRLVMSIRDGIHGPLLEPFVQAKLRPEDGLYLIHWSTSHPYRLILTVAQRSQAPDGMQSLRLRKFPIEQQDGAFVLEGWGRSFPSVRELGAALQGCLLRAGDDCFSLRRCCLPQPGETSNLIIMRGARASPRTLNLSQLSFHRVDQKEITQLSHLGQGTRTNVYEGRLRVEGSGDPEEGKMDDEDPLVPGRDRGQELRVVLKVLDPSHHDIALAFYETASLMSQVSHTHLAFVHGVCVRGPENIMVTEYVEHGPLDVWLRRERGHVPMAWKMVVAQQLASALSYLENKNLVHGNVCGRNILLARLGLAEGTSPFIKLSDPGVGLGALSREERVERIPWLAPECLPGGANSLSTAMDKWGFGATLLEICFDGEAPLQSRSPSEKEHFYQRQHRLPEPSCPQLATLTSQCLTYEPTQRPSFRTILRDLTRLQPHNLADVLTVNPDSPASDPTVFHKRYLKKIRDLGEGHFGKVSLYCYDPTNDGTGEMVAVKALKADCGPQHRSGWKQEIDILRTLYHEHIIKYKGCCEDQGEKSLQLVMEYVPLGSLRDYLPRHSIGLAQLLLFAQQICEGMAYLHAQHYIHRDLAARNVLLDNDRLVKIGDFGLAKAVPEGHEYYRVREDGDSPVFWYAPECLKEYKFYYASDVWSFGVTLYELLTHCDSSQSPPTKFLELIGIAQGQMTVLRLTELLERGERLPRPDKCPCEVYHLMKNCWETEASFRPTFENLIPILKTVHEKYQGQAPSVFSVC
Outline: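 Read-out: phospho-STAT in NK92 lysates, MSD format, anti-STAT4 antibodies. Cells were serum-starved, given compound for 1 hr (10 μM top, four-fold, 10 points) and IL2-stimulated (30 ng/mL, 15 min). Normalized percent activity vs log concentration, 4-parameter logistic fit gave IC50.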

[3] = target: T1, human JAK2 kinase domain (JH1) (Homo sapiens, UniProt O60674); experiment: JH1 biochemical assay for JAK2 (ADP-Glo kinase assay, recombinant JH1 catalytic domain, JAK3-974 peptide, 15 μM ATP)
T1 construct: recombinantly generated catalytic kinase (also known as JH1) domain of human JAK1, JAK2, JAK3 and TYK2
T1 sequence (O60674 849-1124 limits assumed): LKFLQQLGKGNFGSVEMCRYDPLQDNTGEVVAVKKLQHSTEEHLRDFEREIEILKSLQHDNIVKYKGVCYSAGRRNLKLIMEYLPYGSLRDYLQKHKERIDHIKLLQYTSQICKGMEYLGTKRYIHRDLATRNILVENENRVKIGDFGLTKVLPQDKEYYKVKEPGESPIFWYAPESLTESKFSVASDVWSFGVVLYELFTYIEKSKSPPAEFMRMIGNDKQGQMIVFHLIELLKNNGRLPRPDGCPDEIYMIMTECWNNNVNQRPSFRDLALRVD
Outline: (§1)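 Luminescent ADP read-out after residual ATP depletion, 100 min reaction. Kinase domain concentrations were 4 nM (JAK1), 0.2 nM (JAK2), 0.3 nM (JAK3) and 2 nM (TYK2), each with 50 μM peptide. IC50 values came from 4-parameter logistic fits over 11 points, 3-fold steps, top 10 μM or 1 μM.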

[4] = target: T2, human JAK3 kinase domain (JH1) (Homo sapiens, UniProt P52333); experiment: JH1 biochemical assay for JAK3 (ADP-Glo kinase assay, recombinant JH1 catalytic domain, JAK3-974 peptide, 4 μM ATP)
T2 construct: recombinantly generated catalytic kinase (also known as JH1) domain of human JAK1, JAK2, JAK3 and TYK2
T2 sequence (P52333 822-1111 limits assumed): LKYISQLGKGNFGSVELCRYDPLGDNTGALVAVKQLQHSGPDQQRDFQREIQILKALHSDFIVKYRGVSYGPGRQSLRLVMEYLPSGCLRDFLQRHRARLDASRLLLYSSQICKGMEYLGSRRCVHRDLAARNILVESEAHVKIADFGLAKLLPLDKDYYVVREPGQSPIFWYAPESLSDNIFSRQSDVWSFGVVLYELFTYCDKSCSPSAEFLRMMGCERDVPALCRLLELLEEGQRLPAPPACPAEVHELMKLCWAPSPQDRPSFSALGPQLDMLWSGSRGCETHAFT
Outline: as §1

[5] = target: T3, human JAK1 kinase domain (JH1) (Homo sapiens, UniProt P23458); experiment: JH1 biochemical assay for JAK1 (ADP-Glo kinase assay, recombinant JH1 catalytic domain, JAK3-342 peptide, 35 μM ATP)
T3 construct: recombinantly generated catalytic kinase (also known as JH1) domain of human JAK1, JAK2, JAK3 and TYK2
T3 sequence (P23458 875-1153 limits assumed): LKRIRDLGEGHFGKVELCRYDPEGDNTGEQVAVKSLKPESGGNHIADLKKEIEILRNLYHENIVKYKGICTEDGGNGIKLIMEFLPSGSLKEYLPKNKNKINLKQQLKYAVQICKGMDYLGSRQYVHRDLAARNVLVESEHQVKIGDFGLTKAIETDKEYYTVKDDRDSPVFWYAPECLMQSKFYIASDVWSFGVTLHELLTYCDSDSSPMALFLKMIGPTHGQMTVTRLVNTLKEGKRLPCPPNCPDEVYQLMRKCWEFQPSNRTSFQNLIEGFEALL
Outline: as §1

[6] = target: T4, human TYK2 kinase domain (JH1) (Homo sapiens, UniProt P29597); experiment: JH1 biochemical assay for TYK2 (ADP-Glo kinase assay, recombinant JH1 catalytic domain, JAK3-974 peptide, 10 μM ATP)
T4 construct: recombinantly generated catalytic kinase (also known as JH1) domain of human JAK1, JAK2, JAK3 and TYK2
T4 sequence (P29597 897-1176 limits assumed): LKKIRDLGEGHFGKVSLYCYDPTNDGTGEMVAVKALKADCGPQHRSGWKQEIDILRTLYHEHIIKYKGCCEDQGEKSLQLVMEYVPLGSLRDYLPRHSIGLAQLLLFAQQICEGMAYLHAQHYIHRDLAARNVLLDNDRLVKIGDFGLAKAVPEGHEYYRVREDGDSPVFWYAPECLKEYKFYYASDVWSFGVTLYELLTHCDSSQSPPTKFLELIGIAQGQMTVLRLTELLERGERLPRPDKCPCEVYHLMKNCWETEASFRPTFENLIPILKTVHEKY
Outline: as §1

[7] = target: JAK1 kinase activity on STAT3 in TF1 cells (Homo sapiens, UniProt P23458); experiment: pSTAT3 cell assay (MSD; TF1 cells, 30 ng/mL IL-6 stimulation); assay type: cell-based; conditions: 30 ng/mL IL-6, 15 minutes
JAK1 kinase activity on STAT3 in TF1 cells, sequence (P23458 whole entry): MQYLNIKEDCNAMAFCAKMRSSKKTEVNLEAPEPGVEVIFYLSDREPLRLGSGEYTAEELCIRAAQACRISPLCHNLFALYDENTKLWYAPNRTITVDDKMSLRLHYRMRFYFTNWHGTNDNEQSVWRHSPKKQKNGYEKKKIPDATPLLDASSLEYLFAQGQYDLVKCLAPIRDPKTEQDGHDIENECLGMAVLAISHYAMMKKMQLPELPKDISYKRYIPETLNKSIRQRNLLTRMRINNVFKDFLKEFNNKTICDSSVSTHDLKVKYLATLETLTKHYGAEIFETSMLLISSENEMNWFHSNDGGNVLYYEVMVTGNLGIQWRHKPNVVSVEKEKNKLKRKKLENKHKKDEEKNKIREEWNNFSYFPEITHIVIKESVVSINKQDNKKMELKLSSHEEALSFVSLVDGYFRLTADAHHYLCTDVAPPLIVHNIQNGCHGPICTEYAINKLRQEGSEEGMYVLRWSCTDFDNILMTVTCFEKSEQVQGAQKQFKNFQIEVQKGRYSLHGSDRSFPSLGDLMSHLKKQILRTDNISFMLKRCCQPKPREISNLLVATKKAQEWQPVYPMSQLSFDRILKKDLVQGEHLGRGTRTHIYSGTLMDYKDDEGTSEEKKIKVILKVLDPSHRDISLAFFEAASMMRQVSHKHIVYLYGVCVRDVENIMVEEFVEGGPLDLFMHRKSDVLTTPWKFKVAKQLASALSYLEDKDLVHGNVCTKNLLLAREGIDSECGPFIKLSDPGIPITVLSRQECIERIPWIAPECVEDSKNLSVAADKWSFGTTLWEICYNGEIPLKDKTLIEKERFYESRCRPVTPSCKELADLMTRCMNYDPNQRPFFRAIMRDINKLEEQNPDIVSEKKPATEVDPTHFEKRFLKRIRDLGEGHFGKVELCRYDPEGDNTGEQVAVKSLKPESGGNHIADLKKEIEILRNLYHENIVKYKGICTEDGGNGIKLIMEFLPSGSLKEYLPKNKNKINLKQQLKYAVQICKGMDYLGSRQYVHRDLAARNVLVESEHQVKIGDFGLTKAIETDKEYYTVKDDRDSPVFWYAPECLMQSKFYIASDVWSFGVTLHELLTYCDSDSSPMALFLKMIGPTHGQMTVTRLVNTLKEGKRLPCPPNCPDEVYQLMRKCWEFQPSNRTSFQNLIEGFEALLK
Outline: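 IC50 values derive from 4-parameter logistic fits of normalized pSTAT3 signal, measured by MSD with anti-STAT3 antibodies. TF1 cells, serum-starved beforehand, received compound for 1 hour (top concentration 10 μM, four-fold steps, 10 points) before a 15-minute IL-6 (30 ng/mL) stimulus.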

JAK2 kinase activity on STAT5 in TF1 cells, sequence (O60674 whole entry): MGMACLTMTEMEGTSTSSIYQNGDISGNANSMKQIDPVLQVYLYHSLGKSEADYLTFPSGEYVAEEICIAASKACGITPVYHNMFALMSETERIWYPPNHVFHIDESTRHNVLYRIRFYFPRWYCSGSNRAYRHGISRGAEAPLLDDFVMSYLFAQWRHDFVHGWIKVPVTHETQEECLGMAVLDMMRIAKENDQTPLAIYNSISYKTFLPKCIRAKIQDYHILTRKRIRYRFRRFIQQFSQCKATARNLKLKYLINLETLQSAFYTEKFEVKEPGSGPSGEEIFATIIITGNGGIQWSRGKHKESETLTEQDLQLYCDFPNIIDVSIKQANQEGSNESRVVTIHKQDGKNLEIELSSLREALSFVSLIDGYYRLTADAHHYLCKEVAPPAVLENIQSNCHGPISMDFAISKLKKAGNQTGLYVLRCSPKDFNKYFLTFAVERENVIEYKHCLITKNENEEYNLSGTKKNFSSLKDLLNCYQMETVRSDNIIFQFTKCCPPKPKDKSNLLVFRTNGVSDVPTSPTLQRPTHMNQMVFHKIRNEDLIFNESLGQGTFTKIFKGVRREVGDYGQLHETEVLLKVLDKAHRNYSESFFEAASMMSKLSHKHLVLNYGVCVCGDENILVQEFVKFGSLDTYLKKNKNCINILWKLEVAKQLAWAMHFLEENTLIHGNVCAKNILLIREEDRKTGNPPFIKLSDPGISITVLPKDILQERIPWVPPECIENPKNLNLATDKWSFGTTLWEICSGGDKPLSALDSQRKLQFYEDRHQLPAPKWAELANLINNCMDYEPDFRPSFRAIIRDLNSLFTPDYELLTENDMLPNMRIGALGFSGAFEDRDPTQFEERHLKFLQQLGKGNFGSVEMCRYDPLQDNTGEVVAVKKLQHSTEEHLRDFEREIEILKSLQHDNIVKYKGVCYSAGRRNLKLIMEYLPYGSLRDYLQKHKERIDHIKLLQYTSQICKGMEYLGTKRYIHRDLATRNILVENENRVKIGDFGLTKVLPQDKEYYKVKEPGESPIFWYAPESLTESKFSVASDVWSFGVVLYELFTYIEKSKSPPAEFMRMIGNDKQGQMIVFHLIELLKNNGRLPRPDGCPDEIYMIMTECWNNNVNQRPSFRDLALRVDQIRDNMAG

Row | SMILES | IC50 [1] [nM] | IC50 [2] [nM] | IC50 ([3]; JH1 kinase domain, ADP-Glo) [nM] | IC50 ([4]; JH1 kinase domain, ADP-Glo) [nM] | IC50 ([5]; JH1 kinase domain, ADP-Glo) [nM] | IC50 ([6]; JH1 kinase domain, ADP-Glo) [nM] | IC50 [7] [nM] | IC50 ([3]; JAK2 JH1, ADP-Glo) [nM] | IC50 ([4]; JAK3 JH1, ADP-Glo) [nM] | IC50 ([5]; JAK1 JH1, ADP-Glo) [nM] | IC50 ([6]; TYK2 JH1, ADP-Glo) [nM]
1 | C[C@@H]1CN(c2ccnn3cc(-c4cccnc4)cc23)C(=O)[C@]1(C#N)C1CC1 [Example 60, (3R,4S)-3-cyclopropyl-4-methyl-2-oxo-1-(6-(pyridin-3-yl)pyrrolo[1,2-b]pyridazin-4-yl)pyrrolidine-3-carbonitrile] | > 10000 | > 100 | 100 to 1000 | 100 to 1000 | 100 to 1000 | 5 to 20 | 1000 to 5000 | – | – | – | –
2 | CO[C@H]1C[C@H](n2cc(-c3cc4ncsc4c(N4C[C@@H](C)[C@@](C#N)(C5CC5)C4=O)n3)cn2)C1 [Example 355, (3R,4S)-3-cyclopropyl-1-(6-(1-((1r,3R)-3-methoxycyclobutyl)-1H-pyrazol-4-yl)thiazolo[5,4-c]pyridin-4-yl)-4-methyl-2-oxopyrrolidine-3-carbonitrile] | < 100 | 20 to 50 | – | – | – | – | < 100 | < 100 | < 100 | < 100 | < 5
3 | CCn1cc(-c2cn3nccc3c(N3C[C@@H](C)[C@@](C#N)(C4CC4)C3=O)n2)cn1 [Example 202, (3R,4S)-3-cyclopropyl-1-(6-(1-ethyl-1H-pyrazol-4-yl)pyrazolo[1,5-a]pyrazin-4-yl)-4-methyl-2-oxopyrrolidine-3-carbonitrile] | 100 to 1000 | 50 to 100 | < 100 | < 100 | < 100 | < 5 | 100 to 1000 | – | – | – | –
4 | C[C@@H]1CN(c2nc(-c3cnn(-c4ccncc4)c3)cn3nccc23)C(=O)[C@]1(C#N)C1CC1 [Example 295, (3R,4S)-3-cyclopropyl-4-methyl-2-oxo-1-(6-(1-(pyridin-4-yl)-1H-pyrazol-4-yl)pyrazolo[1,5-a]pyrazin-4-yl)pyrrolidine-3-carbonitrile] | 100 to 1000 | 20 to 50 | – | – | – | – | 100 to 1000 | < 100 | < 100 | < 100 | < 5
5 | C[C@@H]1CN(c2ccnn3cc(-c4cnc(C(F)F)s4)cc23)C(=O)[C@]1(C#N)C1CC1 [Example 101, (3R,4S)-3-cyclopropyl-1-(6-(2-(difluoromethyl)thiazol-5-yl)pyrrolo[1,2-b]pyridazin-4-yl)-4-methyl-2-oxopyrrolidine-3-carbonitrile trifluoroacetate] | > 10000 | > 100 | 100 to 1000 | 100 to 1000 | 100 to 1000 | 5 to 20 | 1000 to 5000 | – | – | – | –
6 | C[C@@H]1CN(c2ccnn3cc(-c4cnn(C5CC5)c4)cc23)C(=O)[C@]1(C#N)C1CC1 [Example 161, (3R,4S)-3-cyclopropyl-1-(6-(1-cyclopropyl-1H-pyrazol-4-yl)pyrrolo[1,2-b]pyridazin-4-yl)-4-methyl-2-oxopyrrolidine-3-carbonitrile] | 1000 to 5000 | 20 to 50 | 100 to 1000 | 100 to 1000 | 100 to 1000 | < 5 | 1000 to 5000 | – | – | – | –
7 | C[C@@H]1CN(c2ccnn3cc(-c4cccnc4F)cc23)C(=O)[C@]1(C#N)C1CC1 [Example 56, (3R,4S)-3-cyclopropyl-1-(6-(2-fluoropyridin-3-yl)pyrrolo[1,2-b]pyridazin-4-yl)-4-methyl-2-oxopyrrolidine-3-carbonitrile] | > 10000 | > 100 | 100 to 1000 | 100 to 1000 | 100 to 1000 | 5 to 20 | 5000 to 10000 | – | – | – | –
8 | C[C@@H]1CN(c2cc(-c3cnn(C4COC4)c3)cc3ncsc23)C(=O)[C@]1(C#N)C1CC1 [Example 348, (3R,4S)-3-cyclopropyl-4-methyl-1-(5-(1-(oxetan-3-yl)-1H-pyrazol-4-yl)benzo[d]thiazol-7-yl)-2-oxopyrrolidine-3-carbonitrile] | 100 to 1000 | 50 to 100 | – | – | – | – | 100 to 1000 | < 100 | < 100 | < 100 | < 5
9 | CCn1cc(-c2cn3ncc(F)c3c(N3C[C@@H](C)[C@@](C#N)(C4CC4)C3=O)n2)cn1 [Example 188, (3R,4S)-3-cyclopropyl-1-(6-(1-ethyl-1H-pyrazol-4-yl)-3-fluoropyrazolo[1,5-a]pyrazin-4-yl)-4-methyl-2-oxopyrrolidine-3-carbonitrile] | 1000 to 5000 | 20 to 50 | < 100 | < 100 | < 100 | < 5 | 100 to 1000 | – | – | – | –
10 | C[C@@H]1CN(c2nc(-c3ccc(S(C)(=O)=O)nc3)cn3nccc23)C(=O)[C@]1(C#N)C1CC1 [Example 257, (3R,4S)-3-cyclopropyl-4-methyl-1-(6-(6-(methylsulfonyl)pyridin-3-yl)pyrazolo[1,5-a]pyrazin-4-yl)-2-oxopyrrolidine-3-carbonitrile trifluoroacetate] | 5000 to 10000 | > 100 | – | – | – | – | 1000 to 5000 | 100 to 1000 | 100 to 1000 | < 100 | 5 to 20
11 | Cc1cncc(-c2cc3c(N4C[C@@H](C)[C@@](C#N)(C5CC5)C4=O)ccnn3c2)c1 [Example 71, (3R,4S)-3-cyclopropyl-4-methyl-1-(6-(5-methylpyridin-3-yl)pyrrolo[1,2-b]pyridazin-4-yl)-2-oxopyrrolidine-3-carbonitrile] | > 10000 | > 100 | 100 to 1000 | 100 to 1000 | 100 to 1000 | 5 to 20 | 1000 to 5000 | – | – | – | –
12 | C[C@@H]1CN(c2nc(-c3cnn(C)c3)cn3nccc23)C(=O)[C@]1(C#N)C1CC1 [Example 184, (3R,4S)-3-cyclopropyl-4-methyl-1-(6-(1-methyl-1H-pyrazol-4-yl)pyrazolo[1,5-a]pyrazin-4-yl)-2-oxopyrrolidine-3-carbonitrile] | 100 to 1000 | 20 to 50 | < 100 | < 100 | < 100 | < 5 | 100 to 1000 | – | – | – | –
13 | C[C@@H]1CN(c2ccnn3cc(-c4cc5n(n4)CCO5)cc23)C(=O)[C@]1(C#N)C1CC1 [Example 110, (3R,4S)-3-cyclopropyl-1-(6-(2,3-dihydropyrazolo[5,1-b]oxazol-6-yl)pyrrolo[1,2-b]pyridazin-4-yl)-4-methyl-2-oxopyrrolidine-3-carbonitrile trifluoroacetate] | > 10000 | > 100 | 100 to 1000 | 100 to 1000 | 100 to 1000 | 5 to 20 | > 10000 | – | – | – | –
14 | C[C@@H]1CN(c2ccnn3cc(-c4cn(C)cn4)cc23)C(=O)[C@]1(C#N)C1CC1 [Example 111, (3R,4S)-3-cyclopropyl-4-methyl-1-(6-(1-methyl-1H-imidazol-4-yl)pyrrolo[1,2-b]pyridazin-4-yl)-2-oxopyrrolidine-3-carbonitrile trifluoroacetate] | > 10000 | > 100 | 100 to 1000 | 100 to 1000 | 100 to 1000 | < 5 | > 10000 | – | – | – | –
15 | Cc1cncc(-c2cn3nccc3c(N3C[C@@H](C)[C@@](C#N)(C4CC4)C3=O)n2)c1 [Example 236, (3R,4S)-3-cyclopropyl-4-methyl-1-(6-(5-methylpyridin-3-yl)pyrazolo[1,5-a]pyrazin-4-yl)-2-oxopyrrolidine-3-carbonitrile] | 5000 to 10000 | > 100 | – | – | – | – | 1000 to 5000 | 100 to 1000 | 100 to 1000 | 100 to 1000 | 5 to 20
16 | C[C@@H]1CN(c2ccnn3cc(-c4cnc5[nH]ncc5c4)cc23)C(=O)[C@]1(C#N)C1CC1 [Example 75, (3R,4S)-1-(6-(1H-pyrazolo[3,4-b]pyridin-5-yl)pyrrolo[1,2-b]pyridazin-4-yl)-3-cyclopropyl-4-methyl-2-oxopyrrolidine-3-carbonitrile] | > 10000 | 50 to 100 | 100 to 1000 | 100 to 1000 | < 100 | < 5 | 1000 to 5000 | – | – | – | –
